From patent publication US8394828B2 (Janssen Pharmaceutica, NV, priority 2003, dated 2013)
“And” between values parts separate entries of the source, which are not always exact repeats. Identical values can stand only once. Like-named read-outs stand apart in the source and are kept apart here.

Assays:
[1] = target: T1, human VR1 (Homo sapiens, UniProt Q8NER1); assay: Human VR1 functional assay (intracellular Ca++, FLIPR, capsaicin challenge); format: cell-based
T1 construct: expressed in transfected cells; host or cells: HEK293
T1 sequence (Q8NER1 whole entry): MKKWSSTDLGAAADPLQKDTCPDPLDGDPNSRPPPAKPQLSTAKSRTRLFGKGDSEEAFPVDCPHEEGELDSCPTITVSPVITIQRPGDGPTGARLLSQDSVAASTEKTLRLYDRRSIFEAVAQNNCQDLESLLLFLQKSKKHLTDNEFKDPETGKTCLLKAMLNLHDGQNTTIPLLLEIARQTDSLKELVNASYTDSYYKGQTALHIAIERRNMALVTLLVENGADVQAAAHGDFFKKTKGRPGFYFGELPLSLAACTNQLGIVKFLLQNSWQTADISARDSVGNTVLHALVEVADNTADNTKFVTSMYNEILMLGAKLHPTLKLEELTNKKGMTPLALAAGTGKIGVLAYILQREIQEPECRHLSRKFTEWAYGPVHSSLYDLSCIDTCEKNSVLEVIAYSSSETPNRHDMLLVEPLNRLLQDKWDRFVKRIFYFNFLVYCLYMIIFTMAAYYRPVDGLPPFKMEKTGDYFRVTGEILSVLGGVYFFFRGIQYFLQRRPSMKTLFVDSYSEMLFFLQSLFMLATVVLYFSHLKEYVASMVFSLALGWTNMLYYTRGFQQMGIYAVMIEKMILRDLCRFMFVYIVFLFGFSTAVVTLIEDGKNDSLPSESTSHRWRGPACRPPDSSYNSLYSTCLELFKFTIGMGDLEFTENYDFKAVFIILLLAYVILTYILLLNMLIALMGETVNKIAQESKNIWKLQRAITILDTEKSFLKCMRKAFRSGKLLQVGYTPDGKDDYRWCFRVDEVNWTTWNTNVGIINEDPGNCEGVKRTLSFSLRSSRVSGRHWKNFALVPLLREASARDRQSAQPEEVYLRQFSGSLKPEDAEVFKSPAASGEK
Description: The functional activity of the test compounds was determined by measuring changes in intracellular calcium concentration using a Ca^++-sensitive fluorescent dye and FLIPR™ technology.
EC50 or IC50 values were determined from dose-response studies.

[2] = target: T1, human VR1; assay: Human VR1 [3H] RTX binding assay; conditions: 3H-RTX binding; for inhibition at 1 µM: compound at 1 μM; for Ki: hVR1, read-out: 3H-RTX binding assay Ki hVR1
Outline: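 Membranes from HEK293 cells transfected with human VR1, about 120 μg protein/ml, incubated with [3H] RTX in HEPES buffer pH 7.4 with 0.25 mg/mL fatty acid-free BSA for 60 min at 37° C. Bound radioactivity measured by scintillation counting. Non-specific binding defined with 200 nM unlabeled RTX.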

[3] = hVR1, capsaicin challenge, read-out: FLIPR functional assay IC50 hVR1
[4] = FLIPR functional assay IC50 hVR1 60 min, 60 min

IC50 [1, 3] | inhibition at 1 µM [2] | Ki [2] | IC50 [1, 4] | IC50 ([1]; read-out: FLIPR functional assay IC50 hVR1 60 min, 60 min) | SMILES
420 nM | 99% | 36.8 nM | – | – | O=C(Nc1cnc2ccccc2c1)c1ccc(N2CC[C@@H]3CCCC[C@@H]3C2)nc1 (relative stereo) [cis-6-(Octahydro-isoquinolin-2-yl)-N-quinolin-3-yl-nicotinamide]
1500 nM | 25% | – | – | – | O=C(Nc1cnc2ccccc2c1)c1ccc2c(c1)CCN2C(=O)C1CCCCC1 [1-Cyclohexanecarbonyl-2,3-dihydro-1H-indole-5-carboxylic acid quinolin-3-ylamide]
180 nM | 90% | 192 nM | – | – | CN(CCc1ccccc1)c1ccc(CCC(=O)Nc2cnc3ccccc3c2)cc1 [3-[4-(Methyl-phenethyl-amino)-phenyl]-N-quinolin-3-yl-propionamide]
990 nM | 1% | – | – | – | O=C(Nc1cnc2ccccc2c1)c1ccc(NC2CCCCC2)nc1 [6-Cyclohexylamino-N-quinolin-3-yl-nicotinamide]
670 nM | – | 94.1 nM | 35 nM | – | O=C(CCc1ccc(CC2CCCCC2)cc1)Nc1cnc2ccccc2c1 [3-(4-Cyclohexylmethyl-phenyl)-N-quinolin-3-yl-propionamide]
215 nM | 44% | 124 nM | – | – | O=C(Nc1cnc2ccccc2c1)c1ccc(N2CCCCCC2)nc1 [6-Azepan-1-yl-N-quinolin-3-yl-nicotinamide]
280 nM | 90% | 554 nM | – | – | CC(C)CCN(C)c1ccc(C(=O)Nc2cnc3ccccc3c2)cc1 [4-{Methyl-(3-methyl-butyl)-amino}-N-quinolin-3-yl-benzamide]
570 nM | – | 31.5 nM | – | – | CC(C)(c1ccc(CCC(=O)Nc2cnc3ccccc3c2)cc1)C1CCCCC1 [3-{4-(1-Cyclohexyl-1-methyl-ethyl)-phenyl}-N-quinolin-3-yl-propionamide]
400 nM | 91% | 122 nM | – | – | CCCCCN(C)c1ccc(C(=O)Nc2cnc3ccccc3c2)cn1 [6-(Methyl-pentyl-amino)-N-quinolin-3-yl-nicotinamide]
– | 105% | 14.7 nM | – | 190 nM | CCCCCCCCN(C)c1ccc(C(=O)Nc2cnc3ccccc3c2)cc1 [4-(Octyl-methyl-amino)-N-quinolin-3-yl-benzamide]
1200 nM | – | 13.9 nM | – | – | CCC(C)c1ccc(CCC(=O)Nc2cnc3ccccc3c2)cc1 (stereo not shown) [3-(4-sec-Butyl-phenyl)-N-quinolin-3-yl-propionamide]
10000 nM | 97% | 64.9 nM | – | – | CC(C)(C)C1CCC(C(=O)Nc2cnc3ccccc3c2)CC1 (stereo not shown) [4-tert-Butyl-cyclohexanecarboxylic acid quinolin-3-ylamide]
10000 nM | 1% | – | – | – | CC(=O)N(c1ccc(C(=O)Nc2cnc3ccccc3c2)cc1)C1CCCCC1 [4-(Acetyl-cyclohexyl-amino)-N-quinolin-3-yl-benzamide]
– | – | 181 nM | 590 nM | – | CCCCCc1ccc(CCC(=O)Nc2cnc3ccccc3c2)cc1 [3-(4-Pentyl-phenyl)-N-quinolin-3-yl-propionamide]
300 nM and 245 nM | 99% | 35.9 nM and 218 nM | – | – | CN(c1ccc(C(=O)Nc2cnc3ccccc3c2)cn1)C1CCCCC1 [6-(Cyclohexyl-methyl-amino)-N-quinolin-3-yl-nicotinamide]
10000 nM | 40% | – | – | – | CCCCCNc1ccc(C(=O)Nc2cnc3ccccc3c2)c(Cl)c1 [2-Chloro-4-pentylamino-N-quinolin-3-yl-benzamide]
54 nM | 107% | 37.9 nM | – | – | CCCCCN(C)c1ccc(C(=O)Nc2cnc3ccccc3c2)cc1C [3-Methyl-4-(methyl-pentyl-amino)-N-quinolin-3-yl-benzamide]

SMILES | IC50 [1, 3] | inhibition at 1 µM [2] | Ki [2] | IC50 [1, 4] | IC50 ([1]; read-out: FLIPR functional assay IC50 hVR1 60 min, 60 min)
CCCCOc1ccc(C(=O)Nc2cnc3ccccc3c2)cc1 [4-Butoxy-N-quinolin-3-yl-benzamide] | 10000 nM | – | 155 nM | – | –
